Patent US20220211796A1, “PEPTIDE ANTIBIOTICS AND METHODS OF USE THEREOF” (priority 2019, published 2022)
Converted amounts (≈) assume the structure as drawn. Bridge positions count the residues as written; N and C are the ends. Square brackets hold non-standard residues; d marks the D form. Ends that are not written are not given here. Peptide text beside a SMILES is read from it.

Key:
HeLa cells = assay: Mammalian cytotoxicity (MTT) assay; details: 24 h, b121: concentrations up to 256 μg/ml
Method: Cervical cancer cells (HeLa) were cultured in Dulbecco's Modified Eagle's medium (DMEM) (Invitrogen #11995-073) supplemented with 10% bovine calf serum at 37° C., 5% CO2, and seeded (5×10^3 cells/well) in 96-well plate flat-bottomed plate for 24 h before the assay. […] After washing the cells with PBS, the cells were subjected to the standard yellow tetrazolium (3-(4,5-dimethylthiazol-2-yl)-2,5-diphenyltetrazolium bromide (MTT) assay protocol at final concentration of 0.5 mg/ml for 4 h in a humidified 5% CO2 atmosphere at 37° C. MTT solution was then aspirated, and the purple formazan crystals were resuspended in DMSO by incubation for 5 min at 37° C. The absorbance at 540 nm was then read using a microplate reader. Viability control (100% viability) was assigned to samples with only HeLa cells and DMEM media, 0% viability was assigned to samples with 1% added Triton-X-100 and no peptide. Experiments were performed as triplicates at different days.

[1] = tested on: human red blood cells (hRBC); assay: Hemolytic activity; type: cell-based; details: concentrations up to 256 μg/ml
Method: Fresh red human blood cells (hRBC) were washed and centrifuged at 3000 rpm for 5 min at 4° C. with PBS until a clear solution was obtained. Two-fold serial dilutions of each peptide in PBS from 0.5 μg/ml to 256 μg/ml were incubated with 0.25% (v/v) hRBC suspension at 37° C. for 1 h, and then centrifuged for 5 min at 3500 rpm in 96-well plate. 50 μl of the supernatant from each well was diluted with 50 μl pure water, and the OD at 415 nm was measured using microplate reader. Melittin at the same concentrations (200 μg/ml for complete lysis) was used as a positive control. Percent hemolysis was calculated according to the equation: […]
where complete hemolysis was defined as the average hemolysis of all wells containing a final concentration of melittin ranging from 50 to 400 μg/ml. Experiments were performed as triplicates at different days.

[2] = tested on: several Gram-positive strains (with one Gram-negative strain as control); assay: MIC / antibiotic susceptibility, strains not singled out; type: cell-based; details: vancomycin-sensitive bacteria
Method: (§1) The L-peptides identified from five different phage display libraries were catalogued as described previously and selected sequences were synthesized in D-enantiomeric form by SPPS for further investigation in several biological assays.
(§2) MICs were determined according to a 96-well microdilution protocol outlined by the Clinical and Laboratory Standard Institute (CLSI) guideline with modifications for peptide antibiotics reported by Wiegand et al.^35 Two-fold serial peptide dilutions were performed to go from 2560 μg/ml to 5 μg/ml in0.2% BSA and 0.01% acetic acid buffer in 96-well polypropylene plates (COSTAR, #3879). Dilution of bacterial suspensions (1:200) of different bacterial strains that were grown until 0.5 McFarland standard were prepared to obtain a final inoculum concentration of 8×10^5 CFU/ml in Mueller-Hinton broth.

E. faecalis ATCC 29121 = assay: microbe, parasite or virus in culture
Method: as §1, §2

[3] = tested on: high level vancomycin resistant E. faecium (vanA) ATCC 51559; assay: microbe, parasite or virus in culture
Method: as §1, §2

E. coli ATCC 25992 = assay: microbe, parasite or virus in culture
Method: as §1, §2

S. aureus ATCC 6538 = assay: microbe, parasite or virus in culture
Method: as §1, §2

[4] = tested on: Methicillin-resistant S. aureus (MRSA) ATCC 43300; assay: microbe, parasite or virus in culture
Method: as §1, §2

B. subtilis ATCC 6633 = assay: microbe, parasite or virus in culture
Method: as §1, §2

[5] = tested on: low level vancomycin resistant E. faecium (vanB) ATCC 51299; assay: microbe, parasite or virus in culture
Method: as §1, §2

[6] = tested on: cell wall biosynthesis in S. aureus; assay: Accumulation of UDP-N-acetylmuramyl-pentapeptide precursor; type: cell-based; details: 10-fold MIC, 1 h
Text: We next examined the effect of P14 and P15 on cell wall biosynthesis in live bacteria. Blockade of this biosynthetic pathway causes accumulation of the water soluble intracellular intermediate lipid II precursor UDP-MurNAc-L-Ala-D-γ-Glu-L-Lys-D-Ala-D-Ala.^40 This intermediate is detectable after extraction from the cytosol in response to antibiotic administration by chromatographic methods.
Accumulation of UDP-N-acetylmuramyl-pentapeptide precursor from S. aureus Accumulation of peptidoglycan precursor of S. aureus […] was analyzed in the presence of peptide antibiotics. Bacteria were grown at 37° C. till OD600 of 0.5 was attained. Ten times MICs of peptide antibiotics were added per ml of grown bacterial culture and allowed to stand for 1 h. After cooling the cells on ice, they were harvested by centrifugation at 4° C. for 15 min. Bacterial cells were suspended in distilled water, and then slowly stirred into boiling water for 15 min. The suspension was allowed to cool first at room temperature, then on ice. After centrifugation at 4° C. for 1 h, the supernatant was lyophilized. The lyophilized sample was dissolved in water, and pH was adjusted to 2 by addition of 20% H3PO4. The white precipitate was removed by centrifugation, and the supernatant was immediately subjected to RP-HPLC analysis and MWs were assessed by MALDI-TOF mass spectroscopy.

S. aureus = assay: Time-kill kinetic assay; type: cell-based; details: 10×MIC, 5×MICs
Method: The bacteria-killing kinetics of peptides with S. aureus was measured at 5×MICs, and vancomycin was used as a positive control. An overnight culture of bacterial cells was re-suspended in fresh MH broth at density of 10^7 cells/ml, and cultured with peptides at 37° C. Viable colony forming units (CFUs) were counted by performing tenfold serial dilutions of the aliquot sample at intervals of 0, 1, 2, 4, 8, 12, and 24 hours after inoculation, and plated on MHB agar plates. Time-kill curves were plotted as Log10 (cfu ml^−1) versus time functions.

[7] = Table 5, E. faecalis ATCC 29121
[8] = Table 5, high level vancomycin resistant E. faecium ATCC 51559
[9] = Table 5, low level vancomycin resistant E. faecium ATCC 51299

| Molecule | lysis / toxicity on red blood cells [1] | activity against vancomycin-sensitive bacterial strains [2] | activity against vanB / low-level vancomycin-resistant strain [5] | accumulation of UDP-MurNAc-pentapeptide [6] | killing kinetics / bactericidal activity (S. aureus) | MIC E. faecalis (E. faecalis ATCC 29121; [7]) [mg/L] | MIC VRE (vanA) [3, 8] [mg/L] | MIC E. coli (E. coli ATCC 25992; Table 5, E. coli ATCC 25992) [mg/L] | MIC B. subtilis (B. subtilis ATCC 6633; Table 5, B. subtilis ATCC 6633) [mg/L] | MIC E. faecalis (E. faecalis ATCC 29121; ATCC 29121) [mg/L] | MIC VRE (vanA) ([3]; ATCC 51559) [mg/L] | MIC E. coli (E. coli ATCC 25992; ATCC 25992) [mg/L] | MIC S. aureus (S. aureus ATCC 6538; ATCC 6538) [mg/L] | MIC MRSA ([4]; ATCC 43300) [mg/L] | MIC B. subtilis (B. subtilis ATCC 6633; ATCC 6633) [mg/L] | MIC VRE (vanB) [5, 9] [mg/L] | further results |
| --- | --- | --- | --- | --- | --- | --- | --- | --- | --- | --- | --- | --- | --- | --- | --- | --- | --- |
| CC[C@H](C)[C@H](NC(=O)CN)C(=O)NCC(=O)N[C@@H](C)C(=O)N[C@H](C(=O)N[C@@H](CC(C)C)C(=O)N[C@@H](CCCCN)C(=O)N[C@H](C(=O)N[C@@H](CC(C)C)C(=O)N[C@H](C(=O)N[C@H](C(=O)NCC(=O)N[C@@H](CC(C)C)C(=O)N1CCC[C@H]1C(=O)N[C@@H](C)C(=O)N[C@@H](CC(C)C)C(=O)N[C@H](C(=O)N[C@@H](CO)C(=O)N[C@@H](Cc1c[nH]c2ccccc12)C(=O)N[C@H](C(=O)N[C@@H](CCCCN)C(=O)N[C@@H](CCCNC(=N)N)C(=O)N[C@@H](CCCCN)C(=O)N[C@@H](CCCNC(=N)N)C(=O)N[C@@H](CCC(N)=O)C(=O)N[C@@H](CCC(N)=O)C(N)=O)[C@@H](C)CC)[C@@H](C)CC)[C@@H](C)O)[C@@H](C)O)C(C)C)C(C)C [P2, Melittin] | – | – | – | – | – | – | – | – | – | – | – | – | – | – | – | – | cytotoxicity on HeLa cells (HeLa cells): toxic |
| CGGGICRTHNC [P18] | neither caused lysis of erythrocytes | excellent activity | moderate activity | – | – | – | – | – | – | – | – | – | – | – | – | – | MIC E. faecalis (E. faecalis ATCC 29121; Table 6, E. faecalis ATCC29121): 128 mg/L; MIC VRE (vanA) ([3]; Table 6, high level vancomycin resistant E. faecium ATCC51559): >256 mg/L; MIC E. coli (E. coli ATCC 25992; Table 6, E. Coli ATCC25992): >256 mg/L; MIC S. aureus (S. aureus ATCC 6538; Table 6, S. aureus ATCC6538): 16 mg/L; MIC MRSA ([4]; Table 6, MRSA ATCC43300): 32 mg/L; MIC B. subtilis (B. subtilis ATCC 6633; Table 6, B. subtilis ATCC6633): 16 mg/L; MIC VRE (vanB) ([5]; Table 6, low level vancomycin resistant E. faecium ATCC51299): 128 mg/L |
| CQTDVCQRTIC ([dC][dQ][dT][dD][dV][dC][dQ][dR][dT][dI][dC]; not fully specified (bridges); also: bicyclic, ring places and kind not given here) [P14] | neither caused lysis of erythrocytes | high antibacterial activity | high antibacterial activity | accumulation of UDP-MurNAc-pentapeptide at levels similar to vancomycin | bactericidal activity similar to vancomycin | 32 | 128 | >256 | 8 | – | – | – | – | – | – | – | activity against vanA / high-level vancomycin-resistant strain [3]: high antibacterial activity; MIC against S. aureus (S. aureus ATCC 6538): 8 mg/L; MIC against MRSA [4]: 32 mg/L; MIC against vanB vancomycin-resistant Enterococci [5]: 32 mg/L |
| CC(C)C[C@H]1NC(=O)[C@H](N)CSSC[C@H](C(N)=O)NC(=O)[C@@H]([C@H](C)O)NC(=O)[C@@H](C)NC(=O)CNC(=O)[C@@H]([C@H](C)O)NC(=O)[C@@H](CO)NC(=O)[C@@H](Cc2c[nH]c3ccccc23)NC1=O [P12, CLWSTGATC] (H-[dC][dL][dW][dS][dT]G[dA][dT][dC]-NH2; disulfide 1-9) | – | – | – | – | – | – | – | – | – | 128 (≈ 136 µM) | >256 | >256 | 64 (≈ 68.2 µM) | 64 (≈ 68.2 µM) | 64 (≈ 68.2 µM) | >256 | – |
| CSLITQCGGVGC ([dC][dS][dL][dI][dT][dQ][dC]GG[dV]G[dC]; not fully specified (bridges); also: bicyclic, ring places and kind not given here) [P15] | neither caused lysis of erythrocytes | similarly high activity as P14 | – | accumulation of UDP-MurNAc-pentapeptide at levels similar to vancomycin | bactericidal activity similar to vancomycin | 16 | >256 | >256 | 8 | – | – | – | – | – | – | 128 | MIC S. aureus (S. aureus ATCC 6538; Table 5, S. aureus ATCC 6538): 8 mg/L; MIC MRSA ([4]; Table 5, MRSA ATCC 43300): 32 mg/L |
| CC(C)C[C@@H](NC(=O)[C@@H](CC(N)=O)NC(=O)[C@@H](CO)NC(=O)CNC(=O)[C@H](N)C(C)C)C(=O)N[C@H](CCCNC(=N)N)C(=O)N[C@H](CC(C)C)C(=O)N[C@H](CC(C)C)C(=O)N[C@H](Cc1c[nH]cn1)C(=O)N[C@H](CCC(N)=O)C(=O)N[C@H](Cc1c[nH]c2ccccc12)C(=O)N[C@H](CCCCN)C(N)=O [P3, VGSNLRLLHQWK] (H-[dV]G[dS][dN][dL][dR][dL][dL][dH][dQ][dW][dK]-NH2) | – | – | – | – | – | – | – | – | – | 32 (≈ 22.1 µM) | >256 | >256 | 32 (≈ 22.1 µM) | 64 (≈ 44.1 µM) | 32 (≈ 22.1 µM) | >256 | – |
